Values after ≈ are worked out from the molar mass of the structure shown. Blank lines part the entries; values can stand above or below the compound they belong to.
Key:
[1] = target: T1, Prostaglandin D2 receptor (Homo sapiens) (UniProt Q13258); test: Binding affinity to human DP1 receptor expressed in rat C6 cells assessed as binding constant; assay type: cell-based; conditions: filed as antagonist
T1 sequence (whole entry): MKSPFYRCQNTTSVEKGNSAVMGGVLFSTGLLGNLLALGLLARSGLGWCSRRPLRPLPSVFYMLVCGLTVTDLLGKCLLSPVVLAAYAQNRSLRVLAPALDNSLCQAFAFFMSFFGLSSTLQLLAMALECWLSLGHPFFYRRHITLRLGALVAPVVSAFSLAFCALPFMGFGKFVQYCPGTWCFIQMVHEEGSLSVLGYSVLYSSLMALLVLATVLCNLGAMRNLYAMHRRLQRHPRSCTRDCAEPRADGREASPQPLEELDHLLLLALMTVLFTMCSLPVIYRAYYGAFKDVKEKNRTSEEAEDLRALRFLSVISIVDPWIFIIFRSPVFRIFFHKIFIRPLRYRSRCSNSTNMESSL

[2] = target: T2, Prostaglandin E2 receptor EP2 subtype (Homo sapiens, UniProt P43116); test: Binding affinity to human EP2 receptor expressed in rat C6 cells assessed as binding constant; assay type: cell-based; conditions: filed as antagonist
[3] = Half life in C57BL/6 mouse at 10 mg/kg, po by LC-MS/MS analysis; assay type: ADME, organism-based; conditions: in vivo
[4] = Ratio of drug level in brain to plasma in C57BL/6 mouse at 10 mg/kg, po by LC-MS/MS analysis; assay type: ADME, organism-based; conditions: read-out: BPR
[5] = target: T3, Prostaglandin E2 receptor EP4 subtype (Homo sapiens, UniProt P35408); test: Binding affinity to EP4 receptor (unknown origin) assessed as binding constant; conditions: filed as antagonist
[6] = Aqueous solubility of compound in PBS buffer at pH 7.4 by nephelometric analysis; assay type: ADME
[7] = Solubility of the compound; assay type: ADME
[8] = Ratio of drug level in brain to plasma in C57BL/6 mouse at 3 mg/kg, ip by LC-MS/MS analysis; assay type: ADME, organism-based; conditions: read-out: BPR
[9] = Ratio of drug level in brain to plasma in C57BL/6 mouse at 20 mg/kg, ip by LC-MS/MS analysis; assay type: ADME, organism-based; conditions: read-out: BPR
[10] = Ratio of drug level in brain to plasma in pilocarpine-induced Sprague-Dawley rat at 25 mg/kg, ip after 6 hrs by LC-MS/MS analysis
[11] = Half life in mouse C57BL/6 plasma at 20 mg/kg,ip by LC-MS/MS analysis; assay type: ADME, organism-based; conditions: C57BL/6, mouse
[12] = target: T2, Prostaglandin E2 receptor EP2 subtype; test: Binding affinity to human EP2 receptor expressed in C6 cells assessed as binding constant at 10 mins by TR-FRET cAMP functional assay; assay type: cell-based; conditions: filed as antagonist
[13] = target: T2, Prostaglandin E2 receptor EP2 subtype; test: Potency index, ratio of PF-0418948 Ki to test compound Ki for binding affinity to human EP2
[14] = target: T3, Prostaglandin E2 receptor EP4 subtype; test: Binding affinity to EP4 receptor in human mast cell assessed as inhibition constant; assay type: cell-based
[15] = target: T2, Prostaglandin E2 receptor EP2 subtype; test: Binding affinity to EP2 receptor in human mast cell assessed as inhibition constant; assay type: cell-based
[16] = target: T4, Prostaglandin D2 receptor (Homo sapiens, UniProt Q13258); test: Binding affinity to DP1 receptor in human mast cell assessed as inhibition constant; assay type: cell-based
T4 sequence (Q13258 whole entry): T1 sequence (whole entry)

[17] = target: T4, Prostaglandin D2 receptor; test: Binding affinity to human DP1 receptor expressed in CHO cells assessed as inhibition constant; assay type: cell-based
[18] = target: T3, Prostaglandin E2 receptor EP4 subtype; test: Binding affinity to human EP4 receptor expressed in CHO cells assessed as inhibition constant; assay type: cell-based
[19] = target: T5, Prostaglandin E2 receptor EP3 subtype (Homo sapiens, UniProt P43115); test: Binding affinity to EP3 receptor (unknown origin) assessed as inhibition constant
T5 sequence (P43115 whole entry): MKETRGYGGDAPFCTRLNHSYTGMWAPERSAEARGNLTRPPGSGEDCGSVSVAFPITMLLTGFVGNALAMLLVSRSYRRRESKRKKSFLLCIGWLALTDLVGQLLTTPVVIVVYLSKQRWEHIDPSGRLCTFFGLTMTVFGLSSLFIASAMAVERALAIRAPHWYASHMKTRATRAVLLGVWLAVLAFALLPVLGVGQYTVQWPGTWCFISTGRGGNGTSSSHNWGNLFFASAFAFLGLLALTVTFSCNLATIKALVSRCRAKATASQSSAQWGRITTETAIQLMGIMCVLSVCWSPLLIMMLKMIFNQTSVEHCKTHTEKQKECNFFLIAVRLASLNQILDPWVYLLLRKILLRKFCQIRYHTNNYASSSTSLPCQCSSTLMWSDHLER

[20] = target: T6, Prostaglandin E2 receptor EP1 subtype (Homo sapiens, UniProt P34995); test: Binding affinity to EP1 receptor (unknown origin) assessed as inhibition constant
T6 sequence (P34995 whole entry): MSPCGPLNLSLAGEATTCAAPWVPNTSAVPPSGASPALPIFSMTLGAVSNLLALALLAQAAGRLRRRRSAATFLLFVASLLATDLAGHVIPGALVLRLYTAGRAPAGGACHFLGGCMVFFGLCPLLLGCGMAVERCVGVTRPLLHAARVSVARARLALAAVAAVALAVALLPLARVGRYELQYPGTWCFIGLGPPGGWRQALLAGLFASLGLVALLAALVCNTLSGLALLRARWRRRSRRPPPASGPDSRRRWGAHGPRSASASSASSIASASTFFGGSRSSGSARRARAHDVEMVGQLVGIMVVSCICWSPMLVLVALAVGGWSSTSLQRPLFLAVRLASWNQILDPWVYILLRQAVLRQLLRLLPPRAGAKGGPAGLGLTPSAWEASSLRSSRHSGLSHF

T3 sequence (P35408 whole entry): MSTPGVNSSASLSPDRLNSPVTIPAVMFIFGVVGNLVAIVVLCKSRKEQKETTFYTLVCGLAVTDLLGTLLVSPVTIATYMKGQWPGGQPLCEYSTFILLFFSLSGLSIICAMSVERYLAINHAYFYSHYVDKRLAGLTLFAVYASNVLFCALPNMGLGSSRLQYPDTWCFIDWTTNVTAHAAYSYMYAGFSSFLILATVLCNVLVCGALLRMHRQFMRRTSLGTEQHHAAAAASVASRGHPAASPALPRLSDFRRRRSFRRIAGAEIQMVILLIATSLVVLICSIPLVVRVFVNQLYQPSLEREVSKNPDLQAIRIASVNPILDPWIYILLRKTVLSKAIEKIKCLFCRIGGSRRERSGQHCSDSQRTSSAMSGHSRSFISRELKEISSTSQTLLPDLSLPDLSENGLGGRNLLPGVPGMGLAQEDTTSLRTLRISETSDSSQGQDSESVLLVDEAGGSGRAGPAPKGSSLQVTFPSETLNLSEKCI
T2 sequence (P43116 whole entry): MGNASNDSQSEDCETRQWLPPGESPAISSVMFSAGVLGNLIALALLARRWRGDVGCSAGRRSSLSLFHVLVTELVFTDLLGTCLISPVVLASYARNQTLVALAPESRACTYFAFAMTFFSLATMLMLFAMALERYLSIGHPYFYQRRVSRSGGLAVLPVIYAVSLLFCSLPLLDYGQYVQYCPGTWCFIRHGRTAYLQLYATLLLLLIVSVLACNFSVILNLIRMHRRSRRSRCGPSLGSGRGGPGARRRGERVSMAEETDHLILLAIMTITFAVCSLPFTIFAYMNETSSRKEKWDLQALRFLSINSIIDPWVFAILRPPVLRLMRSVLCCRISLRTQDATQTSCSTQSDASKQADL

Kb [1]: 18 µM
Kb [2]: 0.0485 µM
half-life [3]: 10.5 h
Kp [4]: 0.02
Kb [5]: 15 µM
solubility kinetic [6]: 500 µM (≈ 173 µg/mL)
Compound: Cc1cc2ccccc2n1CCNC(=O)c1ccc(-c2nnn[nH]2)cc1

Ratio Ki [13]: 10
Ki [14]: 16.3 µM
Ki [15]: 0.00063 µM
Ki [16]: 1.2 µM
Compound: COc1ccc(C(=O)N2CCC(COc3ccc(-c4ccc(C#N)cc4)cc3)(C(=O)O)C2)cc1 (stereo not given)

Ki [17]: > 10 µM
Ki [18]: > 10 µM
Ki [19]: > 10 µM
Ki [20]: > 10 µM
Compound: COc1ccc2cc(OCC3(C(=O)O)CN(C(=O)c4ccc(F)cc4)C3)ccc2c1 [PF-04418948]

Second part, the compound before the results:

Compound: COc1cc(/C=C/C(=O)NCCn2c(C)cc3ccccc32)cc(OC)c1OC
solubility [7]: 45 µM (≈ 17.8 µg/mL)
Kp [8]: 0.3

Compound: Cc1[nH]c2ccccc2c1CCNC(=O)c1ccc(-c2c[nH]cn2)cc1
Kp [9]: 0.02
Kp at 6 h [10]: 0.03
half-life [11]: 2.8 h
Kb [12]: 0.0132 µM

— ChEMBL document CHEMBL5223088, “EP2 Antagonists (2011-2021): A Decade's Journey from Discovery to Therapeutics” (J Med Chem, 2021)
